Laboratory results from patent US20180296531A1, “STIMULATION OF 11B-HSD2 EXPRESSION TO IMPROVE HORMONAL THERAPY OF STEROID-DEPENDENT DISEASE” (THE CLEVELAND CLINIC FOUNDATION, priority 2015, published 2018).

What was measured:
GR protein = test: Immunoblot of GR protein in prostate cancer cell lines; type: cell-based, human
Procedure: (§1) For protein analysis, immunoblots were performed as described previously. Li et al., J Clin Endocrinol Metab 98, E1189-1197 (2013). Briefly, total cellular protein was extracted with ice cold RIPA lysis buffer (Sigma-Aldrich) containing protease inhibitors (Roche). 30-50 μg protein was separated by 8% SDS-PAGE gel and then transferred to a nitrocellulose membrane (Millipore). After incubating with the anti-11β-HSD2 antibody (Santa Cruz; 1:3000), anti-11β-HSD1 antibody (Santa Cruz; 1:1000), GR antibody (BD Biosciences; 1:1000), anti-Erlin-2 antibody (Cell Signaling Technology: 1:1000) or anti-AMFR antibody (Proteintech; 1:1000) overnight at 4° C., the appropriate secondary antibody was incubated for 1 hour at room temperature. The chemiluminescent detection system (Thermo Scientific) was used to detect the bands with peroxidase activity. An anti-β-actin antibody (Sigma-Aldrich; 1:5000) was used as a control for sample loading.

11β-HSD2 protein = test: Immunoblot of 11β-HSD2 protein in prostate cancer cell lines; type: cell-based, human
Procedure: as §1

11β-HSD2 = target: T1, 11β-HSD2 (Homo sapiens, UniProt P80365); test: Direct 11β-HSD2 antagonism: cortisol to cortisone conversion in LAPC4 cells transfected with 11β-HSD2 vector; type: cell-based; conditions: LAPC4 transfected with 11β-HSD2 vector, [3H]-cortisol 100 nM
T1 construct: FLAG; expressed in transfected cells; host or cells: LAPC4
T1 sequence (P80365 1-405): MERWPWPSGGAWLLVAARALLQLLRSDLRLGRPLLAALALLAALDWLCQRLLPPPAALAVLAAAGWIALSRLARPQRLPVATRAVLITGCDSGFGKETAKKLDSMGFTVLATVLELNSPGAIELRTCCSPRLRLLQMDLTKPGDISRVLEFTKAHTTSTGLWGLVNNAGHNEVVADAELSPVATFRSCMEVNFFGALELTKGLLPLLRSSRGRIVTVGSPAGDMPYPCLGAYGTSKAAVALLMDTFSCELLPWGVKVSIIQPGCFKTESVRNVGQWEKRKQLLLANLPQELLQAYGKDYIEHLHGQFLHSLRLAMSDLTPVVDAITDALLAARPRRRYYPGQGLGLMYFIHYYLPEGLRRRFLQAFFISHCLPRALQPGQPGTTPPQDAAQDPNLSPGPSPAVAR
Procedure: Gene expression. The day before transfection, LAPC4 cells were plated into 12 well plates coated with poly-DL-ornithine (˜7×10^5 cells/well). On the day of transfections, an Erlin-2 expressing plasmid, Erlin-2-Myc-DDK-tagged (OriGene) or 11β-HSD2-expressing plasmid FCIV1-11β-HSD2-FLAG was introduced into the cells with Lipofectamine® 3000 Reagent (Life Technology). After 48 hours, the cells were collected and used for the detection of 11β-HSD2 and Erlin-2 by immunoblot, or treated with Enz for 24 hours to determine the effects on cortisol metabolism by HPLC as described herein.

Erlin-2 = test: Immunoblot of Erlin-2 in LAPC4 cells and human prostate tissues; type: cell-based
Procedure: as §1
Seven fresh prostate tissue cores (60-80 mg) from Patients #5-#11 were obtained from the peripheral zone of radical prostatectomy specimens at Cleveland Clinic, confirmed to have tumor in or in close proximity to cores by an expert prostate cancer pathologist, minced and aliquoted to two parts. One was treated with 10 nM DHEA plus vehicle, and the other was treated with 10 nM DHEA plus 10 μM Enz. […]

serum corticosterone = test: Mass spectrometry of corticosterone in mouse serum; type: in vivo
Procedure: Mouse serum analysis. At the endpoint of the xenograft study, mouse serum was collected. 20 μl of mouse serum and internal standard (corticosterone-d8) were precipitated with 200 μl methanol. After centrifugation, the supernatant was transferred to HPLC vials prior to mass spectrometry analysis.
The LC-MS/MS system contains an ultra-pressure liquid chromatography system (Shimadzu Corporation, Japan) which is consisted of two LC-30AD pumps, a DGU-20A5R degasser, a CTO-30A column oven, SIL-30AC autosampler, and a system controller CBM-20A and coupled with a Qtrap 5500 mass spectrometer (AB Sciex). Data acquisition and processing were performed using Analyst® software (version 1.6.2) from ABSciex.
Steroids were ionized using electrospray ionization in positive mode. Quantification of analytes was performed using multiple reaction monitoring. The mass transitions for corticosterone, 11-dehydrocorticosterone, and internal standard are 347.3/121.0, 345.3/121.0, and 355.3/125.0, respectively. Separation of steroids was achieved using a Zorbax Eclipse plus C18 column (Agilent) using mobile phase consisting of (A) 0.2% formic acid in water and (B) 0.2% formic acid in (methanol:acetonitrile, 60:40) with a gradient program at a flow rate of 0.2 ml/min. Sample injection volume was 10 μl.

[1] = test system: LAPC4 human prostate cancer cell line; test: Cell line cortisol metabolism: conversion of [3H]-cortisol to cortisone, HPLC
LAPC4 cells = test: Cell viability assay (CellTiter-Glo); type: cell-based, human
Procedure: LAPC4 cells or the long-term Enz treated LAPC4 cells were plated in triplicate in 96 well plates coated with poly-DL-ornithine and incubated overnight, then treated with Enz and assayed in triplicate at the time points indicated using CellTiter-Glo (Promega). Viability is normalized to day 0.

[2] = enzalutamide treated 11β-HSD2 mice
[3] = enzalutamide treated vector mice

CNC(=O)c1ccc(N2C(=S)N(c3ccc(C#N)c(C(F)(F)F)c3)C(=O)C2(C)C)cc1F [enzalutamide]
GR protein (GR protein; LAPC4): increase in GR protein
GR protein (GR protein; VCaP and MDA-PCa-2b): increase in GR protein
11β-HSD2 protein expression (11β-HSD2 protein; AR-negative DU145 prostate cancer cell line): does not change 11β-HSD2 protein expression
11β-HSD2 protein (11β-HSD2 protein; LAPC4): Loss of 11β-HSD2 protein
11β-HSD2 protein (11β-HSD2 protein; MDA-PCa-2b): Loss of 11β-HSD2 protein
11β-HSD2 protein (11β-HSD2 protein; VCaP): Loss of 11β-HSD2 protein
direct 11β-HSD2 antagonism (11β-HSD2): no direct 11β-HSD2 antagonism
Erlin-2 expression (Erlin-2; LAPC4 cells): consistently up-regulated
patient tissues with Erlin-2 up-regulation (Erlin-2; human prostate tissues treated with enzalutamide): 8 of 11
serum corticosterone absolute concentration (serum corticosterone; [2]): 867 pmol/mL
serum percentage of corticosterone (serum corticosterone; [2]): 99.85%
serum corticosterone absolute concentration (serum corticosterone; [3]): 873 pmol/mL
serum percentage of corticosterone (serum corticosterone; [3]): 99.87%
cortisol levels / conversion of [3H]-cortisol to cortisone ([1]; long enzalutamide exposure (36 days), LAPC4, cells and media): sustains cortisol levels by retarding conversion to cortisone in cells and media
cortisol metabolism ([1]; short term Enz treatment (24 hours), LAPC4): does not affect cortisol metabolism
cell growth / viability (LAPC4 cells; LAPC4, after sustained (long-term) enzalutamide treatment): Growth recovers
cell viability (LAPC4 cells; LAPC4 in vitro, short-term treatment): suppresses LAPC4 viability
